This experiment deals with GR target genes in A549 cells. In words: RT-qPCR of endogenous GR target genes in A549 cells. Type of experiment: cell-based, human. The settings on record: 2 μM added 1 h prior to 100 nM dex. The method, then:
RNA was isolated using Trizol (Invitrogen) according to the manufacturer's instructions. Reverse transcription reaction was performed using iScript (Biorad) according to specifications with 0.8 μg of total RNA as template. Quantitative PCR amplification of the resulting cDNA was performed on a Roche LightCycler 480 using SYBR green I master mix (Roche). mRNA levels were normalized to the level of β-actin mRNA. Primer sequences are specified below in Tables 6 and 7.
The results as shown in FIGS. 21A-21E generally highlight that G9a and GLP act as coactivators for a subset of endogenous GR target genes. FIG. 21A is an immunoblot showing GLP, G9a and tubulin protein levels in whole cell extracts from A549 cells that were transduced with a control lentivirus encoding a non-specific shRNA (shNS) or lentivirus encoding an shRNA targeting GLP (shGLP). […] Results shown are mean±SEM for five independent experiments. p-value was calculated using a paired t-test. *p≤0.05, **p≤0.01. For FIGS. 21F-1, 21F-2, 21F-3, 21F-4, 21F-5, 21F-6, 21F-7, and 21F-8, mRNA levels for the indicated GR target genes were determined as in FIGS. 21D-1, 21D-2, 21D-3, 21D-4, 21D-5, 21D-6, 21D-7, and 21D-8, using A549 cells which were not transfected with siRNA. […] Results shown are mean±SEM for at least four independent experiments. p-value was calculated using a paired t-test. *p≤0.05, **p≤0.01.
(Real-time PCR tracks product formation cycle by cycle.)

Structures are written as SMILES.

`COc1cc2c(Nc3ccc(NC(=O)c4ccccc4)cc3)ncnc2cc1OCCCN1CCOCC1` [ZM447439, N-[4-[[6-methoxy-7-(3-morpholin-4-ylpropoxy)quinazolin-4-yl]amino]phenyl]benzamide]: for the setting “G9a- and GLP-independent genes”, the “induction of FKBP5, FOXO1 and CITED2 mRNAs by dex” value is on record as “not significantly altered”. Besides, where the note is “G9a/GLP-dependent genes”, the “dex-induced CDH16, ENaCα, PPL, HSD11B2 and CDH1 mRNA levels” value is reported as “significant increases”.
